Data as given in patent US20090318351A1, “METHOD OF TREATING ACUTE ST-ELEVATION MYOCARDIAL INFARCTION WITH A DELTA PKC ANTAGONIST” (priority 2008, published 2009).

Experiments:
[1] = Effect of D-peptides on plasma stability of KAI-9706
Description: KAI-9706 was engineered with D-amino acids to determine their impact on peptide composition stability. Unmodified KAI-9706 was compared to a peptide composition with the same amino acid sequence, however the amino acids used were d-enantiomers instead of 1-amino acids. A retro-inverso version and a scrambled version of the peptide composition were also prepared.

[2] = tested on: patients with acute anterior STEMI; experiment: DELTA MI trial: intracoronary KAI-9803 during primary PCI for acute anterior STEMI
Description: Safety and biomarker end points were assessed.
The following example is a clinical treatment of acute ST-elevation myocardial infarction (STEMI) using the compositions and methods provided in the invention.
Patients were recommended to receive aspirin (162-325 mg orally), a thienopyridine loading dose (clopidogrel 300-600 mg or ticlopidine 500 mg), unfractionated heparin, and glycoprotein IIb-IIIa inhibitors during PCI. […] After verifying the final angiographic inclusion criteria during diagnostic angiography, randomization and study drug preparation occurred in the catheterization laboratory before the beginning of the PCI procedure.
Study drug was reconstituted into a clear solution at 1 of 4 concentrations using serial dilutions with 0.9% sodium chloride solution. Study drug was administered during PCI in the following sequence. First, the guidewire was passed across the obstruction in the left anterior descending (LAD) infarct vessel and an over-the-wire balloon catheter was positioned at the level of the obstruction. Second, the guidewire was removed, and dilute contrast was injected to confirm positioning of the catheter tip downstream from the obstruction and to assess patency of the distal vessel. The contrast injection was followed by a saline flush, and the guidewire was reinserted. Third, the balloon was inflated, and, after removing the guidewire, 2 mL of blinded study drug were hand injected slowly into the distal vascular bed over at least 1 minute. Fourth, the guidewire was readvanced through the catheter into the distal vessel, and the balloon was deflated. Finally, after antegrade epicardial coronary flow was re-established following initial balloon inflations, 3 mL of blinded study drug were injected through the guide catheter positioned at the ostium of the left main coronary artery. The PCI procedure was then completed according to standard technique.
After initial informed consent was obtained and before diagnostic angiography was performed, a continuous digital 12-lead ECG monitor (NEMON 180+, Northeast Monitoring, Natick, Mass.) was applied and baseline serum samples were obtained for analyses of cardiac markers including creatine kinase (CK and CK-MB), troponin T, and N-terminal pro-brain natriuretic peptide (BNP).
After completion of the PCI procedure, angiography was performed a minimum of 10 minutes after the final balloon inflation and a minimum of 30 minutes after antegrade epicardial flow was re-established to measure TIMI (Thrombolysis in Myocardial Infarction) flow grade, corrected TIMI frame count, and TIMI myocardial perfusion grade (TMPG). TMPG was assessed approximately 30 minutes after administration of study drug and prior to intracoronary administration of adenosine. Coronary flow reserve was determined by measuring corrected TIMI frame count before and after administration of 18-24 mcg of intracoronary adenosine. A left ventriculogram was performed to assess ejection fraction.
The continuous ECG monitor was removed after 24 hours of data collection. Continuous ST-segment recovery analysis was performed in a blinded core laboratory. End points assessed from measurement of continuous 12-lead ECGs included time to stable ST recovery, % ST-segment resolution at serial static time points, and ST recovery time-trend curve area defined by summated ST-segment resolution and re-elevation integrated over the first 3 hours following PCI.
Blood collection for CK-MB levels was performed at 3-6 hours, 6-12 hours, 18-24 hours, and 36 hours after randomization.

[3] = Plasma stability of capped peptides (KAI-9706 modified at amino and carboxy termini); details: rat
Description: Plasma stability of capped peptides was compared. KAI-9706 was modified step-wise at its amino and carboxy termini. Plasma stability as measured by the percent of peptide composition remaining after 15 minutes.

Row | Compound | remaining at 0.25 h [1] | remaining at 0.25 h [3] | also measured
1 | CC[C@@H](C)[C@@H](NC(=O)[C@H]1CCCN1C(=O)[C@@H](C)NC(=O)[C@@H](CC(=O)O)NC(=O)[C@@H](Cc1c[nH]cn1)NC(=O)[C@H](N)CSSC[C@H](N)C(=O)N[C@@H](Cc1ccc(O)cc1)C(=O)NCC(=O)N[C@@H](CCCNC(=N)N)C(=O)N[C@@H](CCCCN)C(=O)N[C@@H](CCCCN)C(=O)N[C@@H](CCCNC(=N)N)C(=O)N[C@@H](CCCNC(=N)N)C(=O)N[C@@H](CCC(N)=O)C(=O)N[C@@H](CCCNC(=N)N)C(=O)N[C@@H](CCCNC(=N)N)C(=O)N[C@@H](CCCNC(=N)N)C(=O)O)C(=O)NCC(=O)N[C@H](Cc1ccc(O)cc1)C(=O)N[C@H](CC(=O)O)C(=O)O [KAI-9706 carrier All-L cargo All-D] | 0% | – | –
2 | CC[C@@H](C)[C@@H](NC(=O)[C@H]1CCCN1C(=O)[C@@H](C)NC(=O)[C@@H](CC(=O)O)NC(=O)[C@@H](Cc1c[nH]cn1)NC(=O)[C@H](N)CSSC[C@@H](N)C(=O)N[C@H](Cc1ccc(O)cc1)C(=O)NCC(=O)N[C@H](CCCNC(=N)N)C(=O)N[C@H](CCCCN)C(=O)N[C@H](CCCCN)C(=O)N[C@H](CCCNC(=N)N)C(=O)N[C@H](CCCNC(=N)N)C(=O)N[C@H](CCC(N)=O)C(=O)N[C@H](CCCNC(=N)N)C(=O)N[C@H](CCCNC(=N)N)C(=O)N[C@H](CCCNC(=N)N)C(=O)O)C(=O)NCC(=O)N[C@H](Cc1ccc(O)cc1)C(=O)N[C@H](CC(=O)O)C(=O)O [KAI-9706 carrier All-D cargo All-D] | 100% | – | –
3 | CC(C)C[C@H](NC(=O)[C@H](CO)NC(=O)CNC(=O)[C@H](CC(C)C)NC(=O)[C@H](CCC(=O)O)NC(=O)[C@H](Cc1ccc(O)cc1)NC(=O)[C@H](CO)NC(=O)[C@H](CC(N)=O)NC(=O)[C@H](Cc1ccccc1)NC(=O)[C@H](CO)NC(=O)[C@@H](N)CSSC[C@H](N)C(=O)N[C@@H](Cc1ccc(O)cc1)C(=O)NCC(=O)N[C@@H](CCCNC(=N)N)C(=O)N[C@@H](CCCCN)C(=O)N[C@@H](CCCCN)C(=O)N[C@@H](CCCNC(=N)N)C(=O)N[C@@H](CCCNC(=N)N)C(=O)N[C@@H](CCC(N)=O)C(=O)N[C@@H](CCCNC(=N)N)C(=O)N[C@@H](CCCNC(=N)N)C(=O)N[C@@H](CCCNC(=N)N)C(=O)O)C(=O)O [KAI-9803] | – | – | investigator-reported CHF events ([2]; active study drug group, through 6 months, number of events): 21; incidence of serious adverse events versus placebo ([2]; all cohorts): similar; changes in clinical laboratory values from baseline through 48 hours versus placebo ([2]; blood counts, electrolytes, BUN, creatinine, liver function tests): no differences; incidence of serious adverse events through 30 days ([2]; cohort 1 (0.05 mg)): 30.4%; incidence of serious adverse events through 30 days ([2]; cohort 2 (0.5 mg)): 16.0%; incidence of serious adverse events through 30 days ([2]; cohort 3 (1.25 mg)): 19.2%; incidence of serious adverse events through 30 days ([2]; cohort 4 (5.0 mg)): 35.7%; median maximum change in the QT interval from baseline until after the second dose ([2]; pooled active study drug): 16.9 ms
4 | CC[C@H](C)[C@H](NC(=O)[C@@H]1CCCN1C(=O)[C@H](C)NC(=O)[C@H](CC(=O)O)NC(=O)[C@H](Cc1c[nH]cn1)NC(=O)[C@H](CSSC[C@H](N)C(=O)N[C@@H](Cc1ccc(O)cc1)C(=O)NCC(=O)N[C@@H](CCCNC(=N)N)C(=O)N[C@@H](CCCCN)C(=O)N[C@@H](CCCCN)C(=O)N[C@@H](CCCNC(=N)N)C(=O)N[C@@H](CCCNC(=N)N)C(=O)N[C@@H](CCC(N)=O)C(=O)N[C@@H](CCCNC(=N)N)C(=O)N[C@@H](CCCNC(=N)N)C(=O)N[C@@H](CCCNC(=N)N)C(=O)O)NC(C)=O)C(=O)NCC(=O)N[C@@H](Cc1ccc(O)cc1)C(=O)N[C@@H](CC(=O)O)C(N)=O [KAI-9706 carrier H—OH cargo Ac—NH2] | – | 0% | –
5 | CC[C@H](C)[C@H](NC(=O)[C@@H]1CCCN1C(=O)[C@H](C)NC(=O)[C@H](CC(=O)O)NC(=O)[C@H](Cc1c[nH]cn1)NC(=O)[C@@H](N)CSSC[C@H](NC(C)=O)C(=O)N[C@@H](Cc1ccc(O)cc1)C(=O)NCC(=O)N[C@@H](CCCNC(=N)N)C(=O)N[C@@H](CCCCN)C(=O)N[C@@H](CCCCN)C(=O)N[C@@H](CCCNC(=N)N)C(=O)N[C@@H](CCCNC(=N)N)C(=O)N[C@@H](CCC(N)=O)C(=O)N[C@@H](CCCNC(=N)N)C(=O)N[C@@H](CCCNC(=N)N)C(=O)N[C@@H](CCCNC(=N)N)C(N)=O)C(=O)NCC(=O)N[C@@H](Cc1ccc(O)cc1)C(=O)N[C@@H](CC(=O)O)C(=O)O [KAI-9706 carrier Ac—NH2 cargo H—OH] | – | 92% | –
6 | CC[C@H](C)[C@H](NC(=O)[C@@H]1CCCN1C(=O)[C@H](C)NC(=O)[C@H](CC(=O)O)NC(=O)[C@H](Cc1c[nH]cn1)NC(=O)[C@H](CSSC[C@H](NC(C)=O)C(=O)N[C@@H](Cc1ccc(O)cc1)C(=O)NCC(=O)N[C@@H](CCCNC(=N)N)C(=O)N[C@@H](CCCCN)C(=O)N[C@@H](CCCCN)C(=O)N[C@@H](CCCNC(=N)N)C(=O)N[C@@H](CCCNC(=N)N)C(=O)N[C@@H](CCC(N)=O)C(=O)N[C@@H](CCCNC(=N)N)C(=O)N[C@@H](CCCNC(=N)N)C(=O)N[C@@H](CCCNC(=N)N)C(N)=O)NC(C)=O)C(=O)NCC(=O)N[C@@H](Cc1ccc(O)cc1)C(=O)N[C@@H](CC(=O)O)C(=O)O [KAI-9706 carrier Ac—NH2 cargo Ac—OH] | – | 93% | –
7 | CC[C@H](C)[C@H](NC(=O)[C@@H]1CCCN1C(=O)[C@H](C)NC(=O)[C@H](CC(=O)O)NC(=O)[C@H](Cc1c[nH]cn1)NC(=O)[C@@H](N)CSSC[C@@H](N)C(=O)N[C@H](Cc1ccc(O)cc1)C(=O)NCC(=O)N[C@H](CCCNC(=N)N)C(=O)N[C@H](CCCCN)C(=O)N[C@H](CCCCN)C(=O)N[C@H](CCCNC(=N)N)C(=O)N[C@H](CCCNC(=N)N)C(=O)N[C@H](CCC(N)=O)C(=O)N[C@H](CCCNC(=N)N)C(=O)N[C@H](CCCNC(=N)N)C(=O)N[C@H](CCCNC(=N)N)C(=O)O)C(=O)NCC(=O)N[C@@H](Cc1ccc(O)cc1)C(=O)N[C@@H](CC(=O)O)C(=O)O [KAI-9706 carrier All-D cargo All-L] | 88% | – | –
8 | CC[C@H](C)[C@H](NC(=O)[C@@H]1CCCN1C(=O)[C@H](C)NC(=O)[C@H](CC(=O)O)NC(=O)[C@H](Cc1c[nH]cn1)NC(=O)[C@H](CSSC[C@H](N)C(=O)N[C@@H](Cc1ccc(O)cc1)C(=O)NCC(=O)N[C@@H](CCCNC(=N)N)C(=O)N[C@@H](CCCCN)C(=O)N[C@@H](CCCCN)C(=O)N[C@@H](CCCNC(=N)N)C(=O)N[C@@H](CCCNC(=N)N)C(=O)N[C@@H](CCC(N)=O)C(=O)N[C@@H](CCCNC(=N)N)C(=O)N[C@@H](CCCNC(=N)N)C(=O)N[C@@H](CCCNC(=N)N)C(=O)O)NC(C)=O)C(=O)NCC(=O)N[C@@H](Cc1ccc(O)cc1)C(=O)N[C@@H](CC(=O)O)C(=O)O [KAI-9706 carrier H—OH cargo Ac—OH] | – | 1% | –
9 | CC[C@H](C)[C@H](NC(=O)[C@@H]1CCCN1C(=O)[C@H](C)NC(=O)[C@H](CC(=O)O)NC(=O)[C@H](Cc1c[nH]cn1)NC(=O)[C@@H](N)CSSC[C@H](N)C(=O)N[C@@H](Cc1ccc(O)cc1)C(=O)NCC(=O)N[C@@H](CCCNC(=N)N)C(=O)N[C@@H](CCCCN)C(=O)N[C@@H](CCCCN)C(=O)N[C@@H](CCCNC(=N)N)C(=O)N[C@@H](CCCNC(=N)N)C(=O)N[C@@H](CCC(N)=O)C(=O)N[C@@H](CCCNC(=N)N)C(=O)N[C@@H](CCCNC(=N)N)C(=O)N[C@@H](CCCNC(=N)N)C(=O)O)C(=O)NCC(=O)N[C@@H](Cc1ccc(O)cc1)C(=O)N[C@@H](CC(=O)O)C(N)=O [KAI-9706 carrier H—OH cargo H—NH2] | – | 0% | –
10 | CC[C@H](C)[C@H](NC(=O)[C@@H]1CCCN1C(=O)[C@H](C)NC(=O)[C@H](CC(=O)O)NC(=O)[C@H](Cc1c[nH]cn1)NC(=O)[C@@H](N)CSSC[C@H](NC(C)=O)C(=O)N[C@@H](Cc1ccc(O)cc1)C(=O)NCC(=O)N[C@@H](CCCNC(=N)N)C(=O)N[C@@H](CCCCN)C(=O)N[C@@H](CCCCN)C(=O)N[C@@H](CCCNC(=N)N)C(=O)N[C@@H](CCCNC(=N)N)C(=O)N[C@@H](CCC(N)=O)C(=O)N[C@@H](CCCNC(=N)N)C(=O)N[C@@H](CCCNC(=N)N)C(=O)N[C@@H](CCCNC(=N)N)C(N)=O)C(=O)NCC(=O)N[C@@H](Cc1ccc(O)cc1)C(=O)N[C@@H](CC(=O)O)C(N)=O [KAI-9706 carrier Ac—NH2 cargo H—NH2] | – | 90% | –
